# Data reported in article PMC3335822 (PLoS ONE, 2012).
# Tests used:
# mouse aortic rings = test: Mouse aortic ring assay (ex vivo sprouting angiogenesis, VEGF-stimulated); settings: 5 μM, 10 days
# Description: The preparation of rat collagen and the aortic ring assay were carried out as previously described, [50]. Mice were 4 to 6 week old female C57BL/6, and aortic ring explants were cultured at 37°C in a humidified incubator under a 5% CO2 atmosphere.
# Each inhibitor was serially diluted (between 0.25 mM and 7.5 mM) to stocks of 1000× the working concentrations in sterile 100% DMSO in order to achieve an equal final concentration of DMSO (0.1% v/v) in all culture conditions. For the experiments, the compounds were diluted in EBM containing 2.5% FBS, penicillin/streptomycin and 20 ng/ml VEGF165 (R&D Systems, Minneapolis, MN). Each compound was applied from the first day of culture over a 10-day period with medium change every two days. In all experiments, the vehicle (DMSO, 0.1%) was used as control. The sprouting density was derived from counting the number of branches per ring, and the extent of angiogenic sprouting was estimated by measuring the total surface area covered by the vessels.
# CYP2C9 = tested on: CYP2C9; set-up: method as in PMID 20214587; settings: cited from earlier work
# [1] = set-up: method as in PMID 20214587; settings: cited from earlier work
# [2] = tested on: urate transporter SLC22A12 (URAT1); set-up: method as in PMID 21272127; settings: cited from earlier work
# HUVECs [3] = test: HUVEC transwell migration; type: cell-based, human; settings: 5 μM
# Description: (§1) Human umbilical vein endothelial cells (HUVECs) were purchased from Lonza (Walkersville, MD) and maintained in the endothelial cell growth medium (PromoCell, Heidelberg, Germany), under a 5% CO2 atmosphere. MCF10A cells from ATCC were stably transfected with either pcDNA 3.2/V5-DEST (vector control), V5-EYA2 or V5-EYA2(mut). Transwell migration experiments were performed as previously described.
# HUVECs [4] = test: HUVEC tubulogenesis assay on Matrigel; type: cell-based, human; settings: for effect on tubulogenesis, in words: up to 7.5 μM
# Description: Tubulogenesis assays were performed in 15-well micro-slide (ibidi LLC, Verona WI), using growth factor-reduced matrigel (BD Bioscience, Billerica, MA). The matrix was prepared by loading 10 μl of matrigel in each micro-slide well and allowing it to solidify for 30 minutes at 37°C. HUVECs were trypsinized and resuspended at 100,000 cell/ml in EBM +2.5% FBS. 50 μl (5,000 cell) were loaded on top of the solidified matrigel and the preparation was incubated for 20 hours at 37°C in a humidified incubator in a 5% CO2 atmosphere. Bright field images were taken using an inverted microscope at 2.5× magnification, which allowed imaging of the whole well in two pictures that were later merged in Photoshop. Tubular structures were traced and counted using NeuroJ (NIH, USA). In experiments with inhibitor, the inhibitor was added to the cell suspension before loading. Each sample was loaded in triplicate, and each treatment was repeated for reproducibility.
# zebrafish embryos = test: Analysis of zebrafish vasculature, Tg(kdrl:EGFP) embryos; type: in vivo; settings: exposure from about 5 hpf, analysis at 28–30 hpf
# Description: Tg(kdrl:EGFP)^s843 zebrafish line was used for vascular analysis. Embryos were maintained in fish water until the 50% epiboly stage (5.25 hpf) and were transferred into wells of 24-well plate containing the inhibitors in fish water. All incubation was performed at 28.5°C. The analysis for vascular defects was performed at the 28–30 hpf stages, and embryos were imaged using a fluorescence microscope.
# human EYA3 = biological target: T1, human EYA3 (Homo sapiens, UniProt Q99504); test: pNPP hydrolysis by full-length EYA3; type: biochemical
# T1 construct: residues 127–573 of NM_001990, isoform 1; His-GST (poly-histidine, glutathione-S-transferase) with TVMV protease site (cleaved yes); made in house
# T1 sequence (Q99504 127-573): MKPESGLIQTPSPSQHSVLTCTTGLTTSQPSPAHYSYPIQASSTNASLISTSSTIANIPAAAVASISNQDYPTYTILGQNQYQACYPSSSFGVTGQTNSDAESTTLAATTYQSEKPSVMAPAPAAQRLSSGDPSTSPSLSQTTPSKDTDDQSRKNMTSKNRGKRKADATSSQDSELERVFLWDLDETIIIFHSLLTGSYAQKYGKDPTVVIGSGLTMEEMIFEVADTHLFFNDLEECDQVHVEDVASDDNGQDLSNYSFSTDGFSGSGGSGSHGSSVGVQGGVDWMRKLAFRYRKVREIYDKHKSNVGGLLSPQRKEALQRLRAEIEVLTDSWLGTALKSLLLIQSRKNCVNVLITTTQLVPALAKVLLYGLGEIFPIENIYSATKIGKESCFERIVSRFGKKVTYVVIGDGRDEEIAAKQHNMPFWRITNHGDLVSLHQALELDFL
# From the text: The catalytic domain (ED) of mouse Eyes Absent 3 (Eya3(223–510)) was purified as described before. Human Eyes Absent 3 isoform 2 (representing the major species identified in human cell lines by mass spectrometry and residues 127–573 of NM_001990, isoform 1) was sub-cloned into pDEST565 to express a poly-histidine- Glutathione-S-transferase (His-GST) tagged fusion protein with a TVMV protease site. The protein was purified by glutathione-S-transferase affinity chromatography followed by TVMV cleavage, Ni-NTA chromatography, and finally size exclusion chromatography. […]
# Compounds were dissolved in DMSO and diluted as needed. […] Reactions were incubated at 30°C for 30 minutes and quenched with 100 mM EDTA pH 10. IC50 values were then calculated directly from regression curves using PRISM. All reported values are the mean of two independent experiments.
# MCF10A-EYA2 cells = test: Transwell migration of MCF10A cells over-expressing EYA2; type: cell-based; settings: for effect on migration of MCF10A(EYA2) cells: 7.5 μM
# Description: as §1
# [5] = cited from earlier work
inhibitory effect in the presence of detergent (human EYA3; 0.01% Triton X-100),SMILES,effect on sprouting of aortic rings (mouse aortic rings),inhibition of CYP2C9 (CYP2C9),hepatotoxicity [1],inhibition of URAT1 [2],effect on HUVEC cell motility (HUVECs [3]),"effect on tubulogenesis, in words (HUVECs [4])",effect on the developing vasculature (zebrafish embryos),effect on migration of MCF10A(EYA2) cells (MCF10A-EYA2 cells),half-life [5],reduction in tube formation (HUVECs [4]; 2.5 μM),"IC50 (human EYA3; full-length human EYA3, substrate pNPP)","reduction of cell motility (MCF10A-EYA2 cells; 1 μM (lowest concentration tested), MCF10A-EYA2)"
inhibitory effect was retained,"CCc1oc2ccccc2c1C(=O)c1cc(Br)c(O)c(Br)c1 [Compound 1, Benzbromarone]",shorter sprouts and significantly lower microvascular density,inhibit CYP2C9,reported hepatotoxicity,inhibition of the urate transporter SLC22A12 (URAT1),attenuated HUVEC cell motility,effective only at the highest concentrations tested (7.5 μM),significant reduction of intersegmental vessels even at the lowest dose tested (0.25 μM),significantly inhibited cell migration,about 3 hours,,,
,"CCc1oc2ccccc2c1C(=O)c1ccc(O)cc1 [Compound 1a, Benzarone]",shorter sprouts and significantly lower microvascular density,inhibit CYP2C9,reported hepatotoxicity,inhibition of the urate transporter SLC22A12 (URAT1),attenuated HUVEC cell motility,potently inhibited tubulogenesis in a dose-dependent fashion,"reduced the number of intersegmental vessels, but were less potent",significantly inhibited cell migration,about 3 hours,~50%,17 µM,over 50%
